# Measured values as given in patent US20240066027A1 (DOMAIN THERAPEUTICS, priority 2020, published 2024).
# Molecular target: T1, human PAR-2 (hPAR-2) receptor expressed in HEK-293 T cells in an endogenous manner (Homo sapiens, UniProt P55085)
# T1 construct: human PAR-2 (hPAR-2) receptor expressed in HEK-293 T cells in an endogenous manner; endogenous in cells; host or cells: HEK-293 T cells
# T1 sequence (P55085 26-397): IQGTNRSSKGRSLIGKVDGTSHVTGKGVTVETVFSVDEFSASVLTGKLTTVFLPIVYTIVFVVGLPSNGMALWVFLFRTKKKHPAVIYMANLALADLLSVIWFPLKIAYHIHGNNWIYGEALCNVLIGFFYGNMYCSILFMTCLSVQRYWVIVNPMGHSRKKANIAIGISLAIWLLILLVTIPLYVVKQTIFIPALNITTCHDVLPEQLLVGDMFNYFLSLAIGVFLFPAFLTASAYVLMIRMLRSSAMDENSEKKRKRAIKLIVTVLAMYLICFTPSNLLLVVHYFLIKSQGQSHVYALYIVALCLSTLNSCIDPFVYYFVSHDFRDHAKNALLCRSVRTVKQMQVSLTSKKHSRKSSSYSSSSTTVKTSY
# Experiment: In vitro human PAR-2 functional antagonist activity using calcium assays (Fluo4AM, FLIPR Tetra)
# Format: cell-based
# Settings: HEK-293 T cells stimulated by an EC80 of the 2-Furoyl-LIGRLO-NH2 peptide after 10 min incubation with compound; 20 concentrations, duplicate, two independent experiments
# Procedure: In vitro human PAR-2 functional antagonist activity using calcium assays
# Examples of the present invention were tested successively for their agonist and antagonist activities on human PAR-2 (hPAR-2) receptor expressed in HEK-293 T cells in an endogenous manner. Compounds exert agonist activity if, by themselves in absence of the 2-Furoyl-LIGRLO-NH2 peptide (selective hPAR-2 agonist), they activate PAR-2; they exert antagonist activity if they decrease the action of the 2-Furoyl-LIGRLO-NH2 peptide on the receptor. The assay used to determine compound activity is based on calcium measurement.
# Cell Culture: HEK-293 T cells were maintained in Dulbecco's Modified Eagle's Medium supplemented with 10% Foetal Calf Serum, 1% Penicillin/Streptomycin at 37° C./5% CO2. Flasks for tests (F75) are seeded with 6e+06 cells 24 h before the experiment at 37° C./5% CO2.
# Calcium assay: Receptor activity was detected by changes in intracellular calcium measured using the fluorescent Ca^2+ sensitive dye, Fluo4AM (Molecular Probes).
# The day of the assay, medium was replaced by assay buffer (HBSS 1× (Gibco 14175-053), Hepes 20 mM, MgSO4-7H2O 1 mM, Na2CO3 3.3 mM, CaCl2-2H2O 1.3 mM, 0.5% BSA, Probenecid 2.5 mM, 0.1 mg/mL Pluronic Acid) and complemented with 1 μM Fluo4AM and cells were incubated during 1:30 h at 37° C.
# Cells were then detached, resuspended in assay buffer and seeded in 384 wells, transparent-flat bottom black walled plates (2e+04 cells per well). Plates were incubated at +22° C. for 20 min. Compounds stock solutions were prepared in 100% DMSO and dilutions in test buffer were carried out in polypropylene plates with a digital dispenser (D300e, Tecan). Compounds were added to the cells and intracellular Ca^2+ measurements were collected at the same time on FLIPR Tetra® (Molecular Devices) with specific filters (Exc: 470-495 nm/Em: 515-575 nm).
# Agonist and antagonist activities of compounds were consecutively evaluated on the same cell plate. Agonist activity was first measured after 10 min incubation with the compound alone. Then, cells were stimulated by an EC80 of the 2-Furoyl-LIGRLO-NH2 peptide and fluorescence was recorded for an additional 5 min. EC80 of the 2-Furoyl-LIGRLO-NH2 peptide was the concentration giving 80% of the maximal 2-Furoyl-LIGRLO-NH2 response. Agonist activities are evaluated in comparison to basal signals evoked by assay buffer or maximal 2-Furoyl-LIGRLO-NH2 response. […] Antagonist activities are evaluated in comparison to basal signals evoked by assay buffer or EC80 of 2-Furoyl-LIGRLO-NH2 alone.
row,IC50 [nM],SMILES
1,20 to 10000,"CC(C)(C)n1cc(-c2ccc(Cl)c(F)c2)c2ccc(C(=O)N3CCC(Cn4cc(C(=O)O)cn4)CC3)nc21 [Example 187, 1-((1-(1-(tert-butyl)-3-(4-chloro-3-fluorophenyl)-1H-pyrrolo[2,3-b]pyridine-6-carbonyl)piperidin-4-yl)methyl)-1H-pyrazole-4-carboxylic acid]"
2,20 to 10000,"CC1(C)C(=O)NCCN1C(=O)c1ccc2c(n1)c(C1CC1)nn2-c1ccc(Cl)c(F)c1 [Example 77, 4-(1-(4-chloro-3-fluorophenyl)-3-cyclopropyl-1H-pyrazolo[4,3-b]pyridine-5-carbonyl)-3,3-dimethylpiperazin-2-one]"
3,< 20,"COC[C@@H](C)n1cc(-c2ccc(Cl)c(F)c2)c2ccc(C(=O)N3CCN(c4cc(C)c(C(=O)O)c(C)n4)CC3(C)C)nc21 [Example 140, (R)-6-(4-(3-(4-chloro-3-fluorophenyl)-1-(1-methoxypropan-2-yl)-1H-pyrrolo[2,3-b]pyridine-6-carbonyl)-3,3-dimethylpiperazin-1-yl)-2,4-dimethyinicotinic acid]"
4,> 10000,"CC(=O)c1cn(-c2ccc(Cl)c(F)c2)c2ccc(C(=O)N3CCC(CC(=O)O)CC3)cc12 [Example 206, 2-(1-(3-acetyl-1-(4-chloro-3-fluorophenyl)-1H-indole-5-carbonyl)piperidin-4-yl)acetic acid]"
5,< 20,"CC(C)(C#N)c1ccnc(N2CCN(C(=O)c3ccc4c(-c5ccc(Cl)c(F)c5)cn(C(C)(C)C)c4n3)C(C)(C)C2)c1 [Example 176, 2-(2-(4-(1-(tert-butyl)-3-(4-chloro-3-fluorophenyl)-1H-pyrrolo[2,3-b]pyridine-6-carbonyl)-3,3-dimethylpiperazin-1-yl)pyridin-4-yl)-2-methylpropanenitrile]"
6,20 to 10000,"CC1(C)C(=O)NCCN1C(=O)c1ccc2c(-c3ccc(Cl)c(F)c3)cn(CCn3cccn3)c2n1 [Example 61, 4-(1-(2-(1H-pyrazol-1-yl)ethyl)-3-(4-chloro-3-fluorophenyl)-1H-pyrrolo[2,3-b]pyridine-6-carbonyl)-3,3-dimethylpiperazin-2-one]"
7,20 to 10000,"CC(C)(C)n1cc(-c2ccc(Cl)c(F)c2)c2ccc(C(=O)N3CCC4(CCNC4=O)CC3)nc21 [Example 13, 8-(1-(tert-butyl)-3-(4-chloro-3-fluorophenyl)-1H-pyrrolo[2,3-b]pyridine-6-carbonyl)-2,8-diazaspiro[4.5]decan-1-one]"
8,< 20,"Cc1cc(N2CCN(C(=O)c3ccc4c(-c5ccc(F)c(F)c5)cn(CC(C)C)c4n3)C(C)(C)C2)nc(C)c1C(=O)O [Example 141, 6-(4-(3-(3,4-difluorophenyl)-1-isobutyl-1H-pyrrolo[2,3-b]pyridine-6-carbonyl)-3,3-dimethylpiperazin-1-yl)-2,4-dimethylnicotinic acid]"
9,> 10000,"CC(C)Cc1nn(-c2ccc(Cl)c(F)c2)c2ccc(C(=O)N3CCN(C)C(=O)C3)nc12 [Example 63, 4-(1-(4-chloro-3-fluorophenyl)-3-isobutyl-1H-pyrazolo[4,3-b]pyridine-5-carbonyl)-1-methylpiperazin-2-one]"
10,20 to 10000,"CC(C)Cn1nc(-c2ccc(Cl)c(F)c2)c2ccc(C(=O)N3CCNC(=O)C3(C)C)cc21 [Example 83, 4-(3-(4-chloro-3-fluorophenyl)-1-isobutyl-1H-indazole-6-carbonyl)-3,3-dimethylpiperazin-2-one]"
11,< 20,"CC(C)Cn1cc(-c2ccc(Cl)c(F)c2)c2ccc(C(=O)N3CCNC(=O)C3(C)C)nc21 [Example 29, 4-(3-(4-chloro-3-fluorophenyl)-1-isobutyl-1H-pyrrolo[2,3-b]pyridine-6-carbonyl)-3,3-dimethylpiperazin-2-one]"
12,20 to 10000,"CC(C)Cn1cc(-c2ccc(Cl)cc2)c2ccc(C(=O)N3CCNC(=O)C3(C)C)nc21 [Example 54, 4-[3-(4-chlorophenyl)-1-isobutyl-pyrrolo[2,3-b]pyridine-6-carbonyl]-3,3-dimethyl-piperazin-2-one]"
13,20 to 10000,"CC1(C)C(=O)NCCN1C(=O)c1ccc2c(n1)c(C1CCCC1)nn2-c1ccc(Cl)c(F)c1 [Example 76, 4-(1-(4-chloro-3-fluorophenyl)-3-cyclopentyl-1H-pyrazolo[4,3-b]pyridine-5-carbonyl)-3,3-dimethylpiperazin-2-one]"
14,< 20,"CCOCC(C)(C)n1cc(-c2ccc(Cl)c(F)c2)c2ccc(C(=O)N3CCN(c4cc(C)c(C(=O)O)c(C)n4)CC3(C)C)nc21 [Example 126, 6-(4-(3-(4-chloro-3-fluorophenyl)-1-(1-ethoxy-2-methylpropan-2-yl)-1H-pyrrolo[2,3-b]pyridine-6-carbonyl)-3,3-dimethylpiperazin-1-yl)-2,4-dimethylnicotinic acid]"
15,20 to 10000,"CC(C)Cn1cc(-c2cccc(F)c2)c2ccc(C(=O)N3CCNC(=O)C3(C)C)nc21 [Example 114, 4-(3-(3-fluorophenyl)-1-isobutyl-1H-pyrrolo[2,3-b]pyridine-6-carbonyl)-3,3-dimethylpiperazin-2-one]"
16,20 to 10000,"Cc1cc(NC(=O)C2CCN(C(=O)c3ccc4c(-c5ccc(Cl)c(F)c5)cn(C(C)(C)C)c4n3)CC2)nc(C)c1C(=O)O [Example 123, 6-(1-(1-(tert-butyl)-3-(4-chloro-3-fluorophenyl)-1H-pyrrolo[2,3-b]pyridine-6-carbonyl)piperidine-4-carboxamido)-2,4-dimethylnicotinic acid]"
17,< 20,"CC1(C)C(=O)NCCN1C(=O)c1ccc2c(-c3ccc(Cl)c(F)c3)cn(CC3CC3)c2n1 [Example 35, 4-(3-(4-chloro-3-fluorophenyl)-1-(cyclopropylmethyl)-1H-pyrrolo[2,3-b]pyridine-6-carbonyl)-3,3-dimethylpiperazin-2-one]"
18,20 to 10000,"CC1(C)C(=O)N(CC(=O)O)CCN1C(=O)c1ccc2c(-c3ccc(Cl)c(F)c3)cn(C(C)(C)C)c2n1 [Example 4, 2-(4-(1-(tert-butyl)-3-(4-chloro-3-fluorophenyl)-1H-pyrrolo[2,3-b]pyridine-6-carbonyl)-3,3-dimethyl-2-oxopiperazin-1-yl)acetic acid]"
19,20 to 10000,"CC(C)(C)n1cc(-c2ccc(Cl)c(F)c2)c2ccc(C(=O)N3CC[C@H]4CNC(=O)[C@H]43)nc21 [Example 15, (3aS,6aS)-1-(1-(tert-butyl)-3-(4-chloro-3-fluorophenyl)-1H-pyrrolo[2,3-b]pyridine-6-carbonyl)hexahydropyrrolo[3,4-b]pyrrol-6(1H)-one]"
20,20 to 10000,"Cc1cc(N2CCN(C(=O)c3ccc4c(-c5ccc(C(F)(F)F)nc5)cn(CC(C)C)c4n3)C(C)(C)C2)nc(C)c1C(=O)O [Example 170, 6-(4-(1-isobutyl-3-(6-(trifluoromethyl)pyridin-3-yl)-1H-pyrrolo[2,3-b]pyridine-6-carbonyl)-3,3-dimethylpiperazin-1-yl)-2,4-dimethylnicotinic acid]"
21,20 to 10000,"Cc1cc(C2CCN(C(=O)c3ccc4c(-c5ccc(Cl)c(F)c5)cn(C(C)(C)C)c4n3)CC2)nc(C)c1C(=O)O [Example 168, 6-(1-(1-(tert-butyl)-3-(4-chloro-3-fluorophenyl)-1H-pyrrolo[2,3-b]pyridine-6-carbonyl)piperidin-4-yl)-2,4-dimethylnicotinic acid]"

row,SMILES,IC50 [nM]
1,"CCOP(=O)(OCC)c1ccc(N2CCN(C(=O)c3ccc4c(-c5ccc(Cl)c(F)c5)cn(C(C)(C)C)c4n3)C(C)(C)C2)nc1 [Example 178, diethyl (6-(4-(1-(tert-butyl)-3-(4-chloro-3-fluorophenyl)-1H-pyrrolo[2,3-b]pyridine-6-carbonyl)-3,3-dimethylpiperazin-1-yl)pyridin-3-yl)phosphonate]",20 to 10000
